From patent publication US10800734B2, “Memantine compounds and their preparation and uses thereof” (Sunshine Lake Pharma Co., Ltd., priority 2016, dated 2020)
Read-outs that look alike come from different tables or passages of the source.

Legend:
[1] = format: in vitro ADME; conditions: human, microsomes, 1 μM, pH 7.4
Description: (§1) Analytical LC/MS/MS systems: Agilent 1200 Series vacuum degasser, dual-injection pump, orifice autosampler, column incubator, charged spray ionization (ESI) source, and Agilent G6430 three-stage quadrupole mass spectrometer. The quantitative analysis is performed in the MRM mode, with the following MRM conversion parameters:
Analytical Agilent Poroshell HPH-C18: 2.1×50 mm, 2.7 μM column, 20 μL of sample was injected. Conditions: mobile phase with ammonium formate+0.1% formic acid (A) and methanol+2 mM ammonium formate+0.1% formic acid (B). The flow rate was 0.3 mL/min. The mobile phase gradient is as follows: […]
Agilent 6330 Series LC/MS/MS spectrometer was equipped with G1312A binary injection pump, G1367A automatic sampler and MS/MS detector; LC/MS/MS was used with ESI source. Suitable cationic model treatments and MRM conversion were used for each analyte using standard solution for optimal analysis. The Agilent Poroshell HPH-C18 column was used during the analysis with a specification of 100×4.6 mm I.D., 5 μM. The mobile phase included ammonium formate+0.1% formic acid (A) and methanol+2 mM ammonium formate+0.1% formic acid (B). The flow rate was 0.3 mL/min; the column temperature was maintained at 40° C.; 20 μL of sample was injected.
A human liver microsomal incubation system was used for the testing. The incubation mixtures included human or rat liver microsomes (0.5 mg protein/mL), the tested compound was provided at 1 μM. The compound was dissolved in DMSO and diluted with acetonitrile water and mixed with a mixture of liver microparticle potassium phosphate buffer solution (pH=7.4). The above operations were done on wet ice, and incubated in a thermostatic incubator at 37° C. At different time points (0, 60 and 120 min), ice-cold acetonitrile was added to terminate the reaction. NADPH was not added during the reaction, and the effect of esterase on its conversion was examined. Samples were stored at −80° C. until LC/MS/MS analysis was performed.
The conversion of the compounds of the disclosure to active adamantane compound, which is memantine in the human liver microsome was determined by LC/MS/MS.

[2] = In vivo pharmacokinetics after intramuscular administration in rats
Description: Legend format: tested compound/dose (mg/kg)/converted active adamantane compound, which is memantine.
as §1
Waters XBridge TMC18, 2.1×30 mm, 3.5 μM column; 20 μL of sample was injected in each run. Conditions: The mobile phase included […]+2 mM ammonium formate+0.1% formic acid (A) and methanol+2 mM ammonium formate+0.1% formic acid (B). The flow rate was 0.35 mL/min. The mobile phase gradient is as follows: […]
Additional instruments and reagents included Agilent 6330 Series LC/MS/MS spectrometer equipped with a G1312A Binary Injection Pump, G1367A autosampler and MS/MS Detector for analysis; LC/MS/MS spectrometer with ESI source. Suitable cationic model treatments and MRM conversion were used for each analyte using standard solution for optimal analysis. Waters XBridge TMC18 was used with specifications of 2.1×30 mm, 3.5 μM. The reaction was carried out with ammonium formate+2 mM ammonium formate+0.1% formic acid (A) and methanol+2 mM ammonium formate+0.1% formic acid (B). The flow rate was 0.35 mL/min; the column temperature was maintained at 40° C.; 10 μL of sample was injected.
This example conducted pharmacokinetic studies of various compounds of the present disclosure in rats. The compounds were subjected to pretreatment including grinding and sieving, and were then added to a mixture formed by dissolving and dispersing in Tween-20 and/or Span-20. The mixtures were uniformly dispersed and fixed. The suspensions were pulverized by a ball mill […]. Memantine (MJG, 17.5 mg/kg) or tested compounds (75 or 37.5 mg/kg) were administered by intramuscular administration. Whole blood was collected at 0.25, 1, 2, 5, 7, 24, 48, 72, 96, 120, 148 and 196 h, was centrifuged at 12,000 g for 2 minutes. Plasma was collected and stored at −20° C. or −70° C. until the LC/MS/MS analysis was performed.

[3] = rat, im, solution, 17.5 mg/kg, memantine in plasma

Row | SMILES | Percentage of Remaining or Converted Active Adamantane Compound ([1]; 1 h) | Percentage of Remaining or Converted Active Adamantane Compound ([1]; 2 h) | T½ ([2]; suspension, 75 mg/kg, converted memantine in plasma) | AUC(0-t) [2, 3] | Cmax [2, 3] | Tmax [2, 3] | half-life ([2]; rat, plasma, im, 17.5 mg/kg, solution, 17.5 mg/kg, memantine in plasma, read-out: T½ (converted)) | T½ ([2]; solution, 17.5 mg/kg, memantine in plasma)
1 | CC12CC3CC(C)(C1)CC(NC(=O)OCOC(=O)Cc1cccc4ccccc14)(C3)C2 [Compound 1] | 108% | 101% |  |  |  |  |  | 
2 | CC12CC3CC(C)(C1)CC(NC(=O)OCOC(=O)c1ccccc1)(C3)C2 [Compound 2] | 134% | 118% | too high to be measurable |  |  |  |  | 
3 | CCCCCCCCCCCC(=O)OCOC(=O)NC12CC3CC(C)(CC(C)(C3)C1)C2 [Compound 3] | 35.6% | 35.6% |  |  |  |  |  | 
4 | CCCCCCCCCCCCCCCC(=O)OCOC(=O)NC12CC3CC(C)(CC(C)(C3)C1)C2 [Compound 4] | 25.3% | 34% |  |  |  |  |  | 
5 | CC12CC3CC(C)(C1)CC(N)(C3)C2 [MJG, memantine] | 98% | 98% |  | 11800 ng·h/mL | 1940 ng/mL | 1.33 h | ~240 min | 4 h
